Data on three molecules can be found in US6596871B2, “Polymorphic forms of 6-[4-(1-cyclohexyl-1h-tetraol-5-yl)butoxy]-3,4-dihydro-2(1H)-quinolinone” (priority 2001, dated 2003).

A short description of data set [1]: aqueous solubility of cilostazol Form A. It is filed as physicochemical. The settings on record: Form A as prepared by the procedures of the '479 patent.
Data set [2] in a line: bioavailability of cilostazol Form A. It is filed as in vivo. The settings on record: Form A as prepared by the procedures of the '479 patent.
Data set [3] can be described thus: stability of the polymorphic form. It is filed as physicochemical.
A short description of data set [4]: solid state phase transformation of disturbed/stressed sample on heating by DSC. It is filed as physicochemical. The settings on record: sample disturbed (scratching/stress), heated by DSC from 30° C. to approximately 200° C. at 10° C. per minute. An excerpt:
Characterization of Form A of cilostazol, Form B of cilostazol, and Form C of cilostazol was further completed using DSC thermograms, shown in FIGS. 3, 4, and 5, respectively, with DSC thermograms for combinations of Form A and Form B; Form B and Form C; and Forms A, B, and C are shown in FIGS. 6, 7, and 8 respectively. DSC data were generated using a Mettler-Toledo DSC 821^e (Columbus, Ohio) with a Julabo FT900 intercooler chiller (Julabo Company; Allentown, Pa.). In general, samples were analyzed in a vented, sealed aluminum pan. Because the endothermic peak may vary depending upon the rate of heating and the calibration and precision of the instrument, with the amount of peak variation dependent upon the heating rate used, all thermograms included herein were run under the same, consistent conditions: heating at 10° C. per minute under a nitrogen purge at 40 mL/minute. The resultant sample of Example 1A was disturbed with scratching, which caused the cilostazol sample to undergo a solid state phase transformation at approximately 119° C. followed by an endotherm of melt at approximately 160° C. (Form A) during heating by DSC from 30° C. to approximately 200° C. at 10° C. per minute. When the sample is stressed and reheated (as detailed in Example 2A), the sample undergoes a solid state phase transformation at approximately 147° C. followed by an endotherm of melt at about 160° C. […]

Data set [5] is described as follows: relative solubility inferred from DSC melting behaviour. Format: physicochemical. The settings on record: suggested by lower melting point / weaker crystal packing forces in DSC thermogram (FIG. 8). An excerpt:
Characterization of Form A of cilostazol, Form B of cilostazol, and Form C of cilostazol was further completed using DSC thermograms, shown in FIGS. 3, 4, and 5, respectively, with DSC thermograms for combinations of Form A and Form B; Form B and Form C; and Forms A, B, and C are shown in FIGS. 6, 7, and 8 respectively. DSC data were generated using a Mettler-Toledo DSC 821^e (Columbus, Ohio) with a Julabo FT900 intercooler chiller (Julabo Company; Allentown, Pa.). In general, samples were analyzed in a vented, sealed aluminum pan. Because the endothermic peak may vary depending upon the rate of heating and the calibration and precision of the instrument, with the amount of peak variation dependent upon the heating rate used, all thermograms included herein were run under the same, consistent conditions: heating at 10° C. per minute under a nitrogen purge at 40 mL/minute.
FIG. 8 illustrates a DSC thermogram for the combination of Form A, Form B and Form C having a second heating cycle with a maximum temperature of about 110° C. with a holding time of about 30 minutes. The peaks in the third heating cycle show a Form A to Form B to Form C peak area ratio of approximately 8:2:1, respectively, with the relative amount of Form A, Form B and Form C further variable on the heat of enthalpy of each polymorphic form.
(In general: DSC measures the heat that a sample takes up or gives off during a temperature scan.)

With `O=C1CCc2cc(OCCCCc3nnnn3C3CCCCC3)ccc2N1` [Form A, 6-[4-(1-cyclohexyl-1H-tetrazol-5-yl)butoxy]-3,4-dihydro-2(1H)-quinolinone], the aqueous solubility entry in data set [1] is on record as “low”. For the same molecule, in data set [2], the bioavailability result was “low”.

For the molecule `O=C1CCc2cc(OCCCCc3nnnn3C3CCCCC3)ccc2N1` [Form B, 6-[4-(1-cyclohexyl-1H-tetrazol-5-yl)butoxy]-3,4-dihydro-2(1H)-quinolinone], in data set [3], the “stability of the crystalline form” value is given as “stable”. Also, the “solid state phase transformation temperature (to Form A)” value in data set [4] is “approximately 119 °C”. Moreover, the “solubility relative to Form A” value in data set [5] is recorded as “more soluble than Form A”.

As to `O=C1CCc2cc(OCCCCc3nnnn3C3CCCCC3)ccc2N1` [Form C, 6-[4-(1-cyclohexyl-1H-tetrazol-5-yl)butoxy]-3,4-dihydro-2(1H)-quinolinone], the “stability of the crystalline form” value in data set [3] was “stable”. Moreover, in data set [4], the “solid state phase transformation temperature (to Form A)” value was “approximately 147 °C”. Besides, in data set [5], the “solubility relative to Form A” value was “more soluble than Form A”.
